Reference: patent US20070135499A1 (Aerie Pharmaceuticals, Inc., priority 2005, published 2007)

molecular target: T1, hGRK-2 (Homo sapiens, UniProt P25098); test: luciferase-based (Kinase-Glo) biochemical kinase inhibition assay, hGRK-2; settings: luciferase assay, casein substrate, 10 μM ATP; read-out: GRK-2 inhibition, Ki class
T1 sequence (P25098 1-689): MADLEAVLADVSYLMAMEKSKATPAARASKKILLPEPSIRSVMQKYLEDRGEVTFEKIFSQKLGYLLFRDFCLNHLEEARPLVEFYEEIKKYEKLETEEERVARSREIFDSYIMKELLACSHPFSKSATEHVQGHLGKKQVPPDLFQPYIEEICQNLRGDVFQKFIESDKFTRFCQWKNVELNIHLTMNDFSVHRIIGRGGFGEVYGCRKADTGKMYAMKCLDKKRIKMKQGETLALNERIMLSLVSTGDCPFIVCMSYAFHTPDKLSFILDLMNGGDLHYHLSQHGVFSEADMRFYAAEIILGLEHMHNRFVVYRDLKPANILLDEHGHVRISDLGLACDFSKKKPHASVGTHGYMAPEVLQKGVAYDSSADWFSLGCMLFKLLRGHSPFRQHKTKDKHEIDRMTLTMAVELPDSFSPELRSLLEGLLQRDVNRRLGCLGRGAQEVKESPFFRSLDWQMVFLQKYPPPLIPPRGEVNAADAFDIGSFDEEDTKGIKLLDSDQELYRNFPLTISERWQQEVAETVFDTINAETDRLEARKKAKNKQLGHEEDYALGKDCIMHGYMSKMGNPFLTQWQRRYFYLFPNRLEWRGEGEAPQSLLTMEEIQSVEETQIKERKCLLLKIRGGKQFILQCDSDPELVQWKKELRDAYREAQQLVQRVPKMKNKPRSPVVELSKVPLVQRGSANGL
Procedure: The inhibition of G-protein-coupled receptor kinases including hGRK-2 was determined for the hydrazide compounds using a biochemical assay. The inhibition of GRK-3, GRK-5 and GRK-6 was also determined using the same assay for some of the hydrazide derivatives.
The protein kinase inhibition was determined using a biochemical assay utilizing the light emission of a luciferase reaction. The luciferase-based assay operates on the following reaction principles: [drawing 10]
An inhibitor of GRK-2 will increase in the amount of ATP in solution, as shown. Thus, an inhibitor of GRK-2 will drive the luciferase reaction to the right, resulting in more light emitted. The amount of light emitted is proportional to the inhibition resulting from the GRK-2 inhibitor. The luciferase-based assay was also used to test some of the hydrazides for the inhibition properties towards other kinases.
The test procedure was as follows:
• 50 mM HEPES, pH 7.5 • 10 mM MgCl2 • 100 μM activated sodium orthovanadate • 0.01% CHAPS • 0.1% BSA • 1 mM DTT (added fresh daily) 10× Assay Buffer Stock: • 500 mM HEPES, pH 7.5 • 100 mM MgCl2 • 1 mM activated sodium orthovanadate • 0.1% CHAPS • 1% BSA (leave out for 10× compound dilution buffer) Final Assay Conditions: • 50 μM test compound • 20 μM casein • 10 μM ATP • 50 nM hGRK2 • 4.5% DMSO • 90-120 minute incubation
Stopped by addition of 30 μl 3×-diluted Kinase-Glo reagent containing 0.01% trypan blue. Counted on FUSION plate reader.
Compound Dilution and Transfer
Prepare sufficient buffer containing 40% DMSO to add 20 μl/well to the number of plates being assayed. This buffer should not contain BSA because it will precipitate with addition of 40% DMSO. (EXAMPLE: To make 3000 ml compound dilution buffer: 1200 ml DMSO, 180 ml 10× compound dilution buffer, 1615 ml ultrapure water, 3 ml 1M DTT.).
Using Multidrop, add 20 μl of compound dilution buffer to all wells of the 384-well daughter plate (add 1 μl DMSO to control wells). This will result in a daughter plate which contains 21 μl of ˜500 μM test compound.
Using the PlateTrak, transfer 5 μl of the test compounds to a 384-well, non-binding, white microtiter plate.
Prepare sufficient volume of buffer (with BSA and 1 mM DTT) containing 125 nM GRK2 and 25 μM ATP. (Example: To 219 ml of buffer was added 550 μl 10 mM ATP and 350 μl 79 μM GRK2).
Using Multidrop, add 20 μl of GRK2/ATP mixture to all wells of the microtiter plate.
Prepare sufficient volume of buffer (with BSA and 1 mM DTT) containing 40 μM casein. (EXAMPLE: To 211 ml buffer add 8.8 ml 1 mM casein)
Using Multidrop, add 25 μl to columns 1 through 23 of the microtiter plate. Add 25 μl of complete buffer to column 24 (blanks).
Mix reaction gently by tapping (Multidrop addition of casein does a decent job of mixing), stack plates and incubate at room temperature for between 90 and 120 minutes. Assay progression can be tracked in a separate plate if desired. Target 20-30% ATP consumption. Try to avoid exceeding 40% consumption as kinetics might become non-linear due to substrate (ATP) depletion.
Addition of Kinase-Glo Reagents
The Kinase-Glo reagent can be diluted 3-fold with no loss of data quality in this assay. Additionally, since the library contains many colored compounds which will quench the light emitted from the well resulting in a false negative (kinase inhibitors result in less ATP consumption thus more light emitted), the entire reaction is subject to intentional quench to override this effect. This intentional quench is accomplished by the addition of 0.01% trypan blue to the Kinase-Glo reagents. (EXAMPLE: 100 ml 1× Kinase-Glo reagents (prepared according to product insert), 200 ml assay buffer, 7.5 ml 0.4% trypan blue.
Using Multidrop, add 30 μl to all wells of the assay plate.
Count on FUSION plate reader in luminescence mode.

| Ki [µM] | Molecule |
| --- | --- |
| 0.1 to 1 | O=C(CNc1cccc(Br)c1)N/N=C/c1ccncc1 [Example 44, (3-Bromo-phenylamino)-acetic acid [1-pyridin-4-yl-meth-(E)-ylidene]-hydrazide] |
| 1 to 10 | O=C(CNc1ccc(F)cc1)N/N=C/c1ccncc1 [Example 53, (4-fluoro-phenylamino)-acetic acid [1-pyridin-4-yl-meth-(E)-ylidene]-hydrazide] |
| 1 to 10 | O=C(CNc1ccc(Br)cc1)N/N=C/c1ccncc1 [Example 36, (4-Bromo-phenylamino)-acetic acid [1-pyridin-4-yl-meth-(E)-ylidene]-hydrazide] |
| 0.01 to 0.1 | O=C(CNc1cccc(C(=O)NCCN2CCOCC2)c1)N/N=C/c1c(Cl)cncc1Cl [Example 33, 3-{[1-(3,5-Dichloro-pyridin-4-yl)-meth-(E)-ylidene-hydrazinocarbonylmethyl]-amino}-N-(2-morpholin-4-yl-ethyl)-benzamide] |
| > 10 | O=C(CNc1cccc(Cl)c1)NNCc1ccncc1 [Example 95, (3-Chloro-phenylamino)-acetic acid N′-pyridin-4-ylmethyl-hydrazide] |
| 1 to 10 | Cc1ccc(Oc2cccc(NCC(=O)N/N=C/c3c(Cl)cncc3Cl)c2)cc1 [Example 35, (3-p-Tolyloxy-phenylamino)-acetic acid [1-(3,5-dichloro-pyridin-4-yl)-meth-(E)-ylidene]-hydrazide] |
| > 10 | CC(C)c1ccccc1NCC(=O)N/N=C/c1ccncc1 [Example 69, (2-Isopropyl-phenylamino)-acetic acid [1-pyridin-4-yl-meth-(E)-ylidene]-hydrazide] |
| 0.1 to 1 | O=C(CNc1cccc(Oc2cccnc2)c1)N/N=C/c1ccncc1 [Example 86, [3-(Pyridin-3-yloxy)-phenylamino]-acetic acid [1-pyridin-4-yl-meth-(E)-ylidene]-hydrazide] |
| 1 to 10 | CC(C)Oc1cccc(NCC(=O)N/N=C/c2c(Cl)cncc2Cl)c1 [Example 19, (3-Isopropoxy-phenylamino)-acetic acid [1-(3,5-dichloro-pyridin-4-yl)-meth-(E)-ylidene]-hydrazide] |
| 1 to 10 | CCc1ccccc1NCC(=O)N/N=C/c1c(Cl)cncc1Cl [Example 26, (2-Ethyl-phenylamino)-acetic acid [1-(3,5-dichloro-pyridin-4-yl)-ylidene]-hydrazide] |
| > 10 | O=C(CNc1ccccc1N1CCCCC1)N/N=C/c1ccncc1 [Example 74, (2-Piperidin-1-yl-phenylamino)-acetic acid [1-pyridin-4-yl-meth-(E)-ylidene]-hydrazide] |
| > 10 | Cc1ccccc1Oc1ccccc1NCC(=O)N/N=C/c1c(Cl)cncc1Cl [Example 30, (^2-o-Tolyloxy-phenylamino)-acetic acid [1-(3,5-dichloro-pyridin-4-yl)-meth-(E)-ylidene]-hydrazide] |
| > 10 | CC(C)c1cccc(NCC(=O)N/N=C/c2ccncc2)c1 [Example 61, (3-Isopropyl-phenylamino)-acetic acid [1-pyridin-4-yl-meth-(E)-ylidene]-hydrazide] |
| 0.1 to 1 | O=C(CNc1cccc(Oc2ccc(F)c(F)c2)c1)N/N=C/c1ccncc1 [Example 83, [3-(3,4-Difluoro-phenoxy)-phenylamino]-acetic acid [1-pyridin-4-yl-meth-(E)-ylidene]-hydrazide] |
| > 10 | CCOc1ccccc1NCC(=O)N/N=C/c1ccncc1 [Example 66, (2-Ethoxy-phenylamino)-acetic acid [1-pyridin-4-yl-meth-(E)-ylidene]-hydrazide] |
| 1 to 10 | N#Cc1cccc(NCC(=O)N/N=C/c2c(Cl)cncc2Cl)c1 [Example 3, (3-Cyano-phenylamino)-acetic acid [1-(3,5-dichloro-pyridin-4-yl)-meth-(E)-ylidene]-hydrazide] |
| 1 to 10 | O=C(CNc1cccc(Cl)c1)N/N=C/c1ccoc1 [Example 94, (3-Chloro-phenylamino)-acetic acid [1-furan-3-yl-meth-(E)-ylidene]-hydrazide] |
| > 10 | COc1ccccc1NCC(=O)N/N=C/c1ccncc1 [Example 67, (2-Methoxy-phenylamino)-acetic acid [1-pyridin-4-yl-meth-(E)-ylidene]-hydrazide] |
| > 10 | O=C(CNc1cccc(-n2cncn2)c1)N/N=C/c1ccncc1 [Example 78, (3-[1,2,4]Triazol-1-yl-phenylamino)-acetic acid [1-pyridin-4-yl-meth-(E)-ylidene]-hydrazide] |
| 1 to 10 | O=C(CNc1cccc(I)c1)N/N=C/c1c(Cl)cncc1Cl [Example 11, (3-Iodo-phenylamino)-acetic acid [1-(3,5-dichloro-pyridin-4-yl)-meth-(E)-ylidene]-hydrazide] |
| > 10 | CC(=O)Nc1cccc(NCC(=O)N/N=C/c2ccncc2)c1 [Example 72, N-(3-{[1-Pyridin-4-yl-meth-(E)-ylidene-hydrazinocarbonylmethyl]-amino}-phenyl)-acetamide] |
| 1 to 10 | N#Cc1ccc(NCC(=O)N/N=C/c2ccncc2)cc1 [Example 60] |
| 1 to 10 | CC(=O)Nc1cccc(NCC(=O)N/N=C/c2c(Cl)cncc2Cl)c1 [Example 27, N-(3-{[1-(3,5-Dichloro-pyridin-4-yl)-meth-(E)-ylidene-hydrazinocarbonylmethyl]-amino}-phenyl)-acetamide] |
| 0.1 to 1 | O=C(CNc1cccc(I)c1)N/N=C/c1ccncc1 [Example 49, (3-Iodo-phenylamino)-acetic acid [1-pyridin-4-yl-meth-(E)-ylidene]-hydrazide] |
| > 10 | Cn1cncc1/C=N/NC(=O)CNc1cccc(Cl)c1 [Example 92, (3-Chloro-phenylamino)-acetic acid [1-(3-methyl-3H-imidazol-4-yl)-meth-(E)-ylidene]-hydrazide] |
| > 10 | Cc1ccc(NCC(=O)N/N=C/c2ccncc2)cc1 [Example 56, (4-Methyl-phenylamino)-acetic acid [1-pyridin-4-yl-meth-(E)-ylidene]-hydrazide] |
| 1 to 10 | CS(=O)(=O)c1cccc(NCC(=O)N/N=C/c2c(Cl)cncc2Cl)c1 [Example 23, (3-Methanesulfonyl-phenylamino)-acetic acid [1-(3,5-dichloro-pyridin-4-yl)-meth-(E)-ylidene]-hydrazide] |

| Molecule | Ki [µM] |
| --- | --- |
| Dimethyl-carbamic acid 3-{[1-pyridin-4-yl-meth-(E)-ylidene-hydrazinocarbonyl-methyl]-amino}-phenyl ester [Example 101] | > 10 |
